Literature values, collected in patent US20210161950A1, “Veterinary Supplement for Effecting Bone and Cartilage” (priority 2017, published 2021).

What was measured:
osteoarthritis = details: meta-analysis
[1] = test system: degenerated cartilage of the mandibular joint; details: oral strontium

N[C@H]1C(O)O[C@H](CO)[C@@H](O)[C@@H]1O (stereo partly drawn) [glucosamine]
mobility of joints (osteoarthritis): Improves mobility of joints
osteoarthritis progression (osteoarthritis): Reduces osteoarthritis progression
pain (osteoarthritis): Reduces pain
risk of total joint replacement (osteoarthritis): Reduces risk of total joint replacement
new bone formation and osteoblast lining (bone fractures in rats; glucosamine-treated rats compared to control groups): significantly higher
healing time of bone fractures (bone fractures in rats; rats): helped accelerate the healing time

[Sr+2] [strontium]
cartilage thickness and cell density [1]: increased cartilage thickness and cell density
expression of cartilage catabolic factors and pro-inflammatory cytokines [1]: decreased expression
expression of cartilage matrix molecules such as Collagen II and aggrecan [1]: increased expression
subchondral bone loss and mandibular condylar cartilage degradation [1]: reversed

N[C@H]1C(O)O[C@H](CO)[C@@H](O)[C@@H]1O.O=S(=O)(O)O (stereo partly drawn) [glucosamine sulfate]
connective tissue surrounding bones (bone fractures in rats; rats, after 4 weeks of 230 milligrams glucosamine sulfate daily): more cellular and vascular
strength of newly formed, previously fractured bones (bone fractures in rats; rats, after 4 weeks of 230 milligrams glucosamine sulfate daily, compared to controls): stronger compared to controls
